Source: BigSolDB 2.1

FC(F)(F)c1cccnc1Cl
solubility (mole fraction)
Conditions	273.15 K	278.15 K	283.15 K	288.15 K	293.15 K	298.15 K	303.15 K
in dichloromethane	0.281	0.365	0.41	0.469	0.551	0.625	0.741
in ethanol	0.137	0.182	0.253	0.355	0.475	0.635	0.875
in n-heptane	0.037	0.0552	0.0887	0.14	0.222	0.36	0.556
in n-hexane	0.046	0.0733	0.118	0.199	0.336	0.488	0.762
in n-propanol	0.0727	0.0992	0.132	0.183	0.253	0.355	0.492
in toluene	0.35	0.413	0.491	0.569	0.653	0.724	0.862
